Results from US9302988B2, “Fluoromethyl-substituted pyrrole carboxamides” (GRÜNENTHAL GMBH, priority 2012, dated 2016).

These compounds were tested against T1, Human CaV2.2 channels (Homo sapiens, UniProt Q00975) (assay: Fluorescent assay for CaV2.2 channels using potassium depolarization to induce channel opening (FLIPR, Fluo-4)). Settings: 3 μM test compound, 30 mM KCl, HEK293 cells stably expressing human CaV2.2; read-out: %-Inhib (CaV2.2) @3 μM @30 mM KCl.
T1 construct: expressed in transfected cells
Format: cell-based
Method in brief: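 Channel block was read as the baseline-normalized peak Ca²⁺ signal (Fluo-4, 480/535 nm) after a high-KCl depolarizing addition (210 mM KCl buffer). Beforehand, compound sat 15 min at 25 °C on HEK293 cells carrying human CaV2.2, α2δ/β subunits and Kir2.3, in pH 7.4 buffer with 30 mM KCl.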

T1 sequence (Q00975 whole entry): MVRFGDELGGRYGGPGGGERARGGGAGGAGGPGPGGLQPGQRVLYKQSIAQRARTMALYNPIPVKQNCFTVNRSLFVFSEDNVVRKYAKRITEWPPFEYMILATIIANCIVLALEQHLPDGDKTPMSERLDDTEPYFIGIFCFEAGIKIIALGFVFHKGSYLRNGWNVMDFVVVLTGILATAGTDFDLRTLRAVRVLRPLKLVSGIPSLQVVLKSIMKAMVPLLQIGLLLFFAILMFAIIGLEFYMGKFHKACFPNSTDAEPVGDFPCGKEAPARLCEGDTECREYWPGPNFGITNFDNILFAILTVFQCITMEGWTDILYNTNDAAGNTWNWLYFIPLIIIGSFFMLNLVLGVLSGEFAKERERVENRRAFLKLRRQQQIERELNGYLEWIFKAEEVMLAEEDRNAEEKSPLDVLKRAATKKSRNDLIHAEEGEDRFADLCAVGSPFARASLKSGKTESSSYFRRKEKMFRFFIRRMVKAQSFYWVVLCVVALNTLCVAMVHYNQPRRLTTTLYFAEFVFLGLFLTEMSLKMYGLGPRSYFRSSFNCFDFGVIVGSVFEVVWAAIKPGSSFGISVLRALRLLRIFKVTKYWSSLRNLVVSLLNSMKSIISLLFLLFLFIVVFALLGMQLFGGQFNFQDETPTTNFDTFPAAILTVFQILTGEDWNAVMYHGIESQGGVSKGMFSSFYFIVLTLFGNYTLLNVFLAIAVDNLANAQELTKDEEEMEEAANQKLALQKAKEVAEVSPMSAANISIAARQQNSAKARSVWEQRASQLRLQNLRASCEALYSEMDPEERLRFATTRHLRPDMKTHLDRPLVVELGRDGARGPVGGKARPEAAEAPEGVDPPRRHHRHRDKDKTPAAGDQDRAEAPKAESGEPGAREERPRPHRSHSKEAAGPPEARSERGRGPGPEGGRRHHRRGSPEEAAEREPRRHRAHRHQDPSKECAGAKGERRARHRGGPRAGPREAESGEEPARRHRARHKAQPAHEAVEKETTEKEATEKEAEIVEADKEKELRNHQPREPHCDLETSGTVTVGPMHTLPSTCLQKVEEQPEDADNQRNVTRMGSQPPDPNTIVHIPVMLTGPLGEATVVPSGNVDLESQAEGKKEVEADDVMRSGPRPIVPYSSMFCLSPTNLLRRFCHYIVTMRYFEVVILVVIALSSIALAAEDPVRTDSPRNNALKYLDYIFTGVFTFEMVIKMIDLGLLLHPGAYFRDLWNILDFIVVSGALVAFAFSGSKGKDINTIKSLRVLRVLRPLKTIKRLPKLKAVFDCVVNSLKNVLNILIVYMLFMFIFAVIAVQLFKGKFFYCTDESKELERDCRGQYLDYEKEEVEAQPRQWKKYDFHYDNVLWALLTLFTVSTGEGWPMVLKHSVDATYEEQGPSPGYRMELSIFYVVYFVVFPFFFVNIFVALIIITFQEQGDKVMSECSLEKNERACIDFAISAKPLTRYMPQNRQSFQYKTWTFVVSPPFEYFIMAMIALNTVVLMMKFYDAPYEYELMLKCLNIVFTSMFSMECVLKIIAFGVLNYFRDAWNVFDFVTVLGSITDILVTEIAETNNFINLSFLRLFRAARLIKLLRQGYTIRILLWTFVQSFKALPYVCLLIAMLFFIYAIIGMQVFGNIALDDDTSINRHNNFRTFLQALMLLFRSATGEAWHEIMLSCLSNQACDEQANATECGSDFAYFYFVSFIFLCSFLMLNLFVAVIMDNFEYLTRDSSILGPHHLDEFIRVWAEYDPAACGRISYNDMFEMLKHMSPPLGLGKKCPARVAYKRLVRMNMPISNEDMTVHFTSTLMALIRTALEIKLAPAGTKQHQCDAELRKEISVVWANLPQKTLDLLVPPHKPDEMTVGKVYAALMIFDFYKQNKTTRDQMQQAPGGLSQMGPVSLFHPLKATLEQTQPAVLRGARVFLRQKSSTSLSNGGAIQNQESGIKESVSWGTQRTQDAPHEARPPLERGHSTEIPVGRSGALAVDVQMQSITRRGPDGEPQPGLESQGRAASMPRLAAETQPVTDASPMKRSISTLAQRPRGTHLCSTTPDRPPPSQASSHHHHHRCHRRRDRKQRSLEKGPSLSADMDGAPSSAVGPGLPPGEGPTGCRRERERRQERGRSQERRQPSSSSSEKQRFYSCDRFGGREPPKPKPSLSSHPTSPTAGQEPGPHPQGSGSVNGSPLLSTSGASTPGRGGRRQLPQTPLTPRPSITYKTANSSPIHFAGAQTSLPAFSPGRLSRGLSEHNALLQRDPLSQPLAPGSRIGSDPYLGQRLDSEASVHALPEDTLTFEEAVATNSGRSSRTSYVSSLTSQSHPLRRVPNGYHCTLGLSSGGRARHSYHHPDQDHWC
T1 sequence (P54289 25-1103, further chain): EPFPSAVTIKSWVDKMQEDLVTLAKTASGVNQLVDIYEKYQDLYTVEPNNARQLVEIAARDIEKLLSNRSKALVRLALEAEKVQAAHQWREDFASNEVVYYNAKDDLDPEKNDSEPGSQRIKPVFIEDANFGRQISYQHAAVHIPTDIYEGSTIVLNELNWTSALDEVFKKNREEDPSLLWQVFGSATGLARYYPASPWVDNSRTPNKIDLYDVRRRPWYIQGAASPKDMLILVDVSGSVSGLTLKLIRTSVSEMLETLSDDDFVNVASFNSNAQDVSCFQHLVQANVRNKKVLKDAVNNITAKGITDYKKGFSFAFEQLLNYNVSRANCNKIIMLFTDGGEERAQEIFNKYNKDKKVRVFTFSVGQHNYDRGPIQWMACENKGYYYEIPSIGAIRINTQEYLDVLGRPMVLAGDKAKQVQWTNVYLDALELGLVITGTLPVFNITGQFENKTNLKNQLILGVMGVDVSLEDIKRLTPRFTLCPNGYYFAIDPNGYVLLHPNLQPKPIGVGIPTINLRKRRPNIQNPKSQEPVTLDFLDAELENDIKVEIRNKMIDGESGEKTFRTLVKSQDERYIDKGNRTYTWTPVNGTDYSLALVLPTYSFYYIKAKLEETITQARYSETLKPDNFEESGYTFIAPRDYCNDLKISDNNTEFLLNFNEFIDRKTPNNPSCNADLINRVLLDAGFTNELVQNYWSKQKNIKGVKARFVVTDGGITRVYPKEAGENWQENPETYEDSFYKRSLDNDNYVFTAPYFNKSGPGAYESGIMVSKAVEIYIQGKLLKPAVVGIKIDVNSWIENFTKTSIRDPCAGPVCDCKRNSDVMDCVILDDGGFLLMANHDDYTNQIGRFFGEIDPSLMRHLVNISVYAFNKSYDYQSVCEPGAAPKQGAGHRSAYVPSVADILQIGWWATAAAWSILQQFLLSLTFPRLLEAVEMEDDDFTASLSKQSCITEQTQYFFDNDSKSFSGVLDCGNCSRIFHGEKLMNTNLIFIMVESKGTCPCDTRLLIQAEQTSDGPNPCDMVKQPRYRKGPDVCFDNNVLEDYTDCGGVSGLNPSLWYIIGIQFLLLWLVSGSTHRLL
T1 sequence (P54284 whole entry, further chain): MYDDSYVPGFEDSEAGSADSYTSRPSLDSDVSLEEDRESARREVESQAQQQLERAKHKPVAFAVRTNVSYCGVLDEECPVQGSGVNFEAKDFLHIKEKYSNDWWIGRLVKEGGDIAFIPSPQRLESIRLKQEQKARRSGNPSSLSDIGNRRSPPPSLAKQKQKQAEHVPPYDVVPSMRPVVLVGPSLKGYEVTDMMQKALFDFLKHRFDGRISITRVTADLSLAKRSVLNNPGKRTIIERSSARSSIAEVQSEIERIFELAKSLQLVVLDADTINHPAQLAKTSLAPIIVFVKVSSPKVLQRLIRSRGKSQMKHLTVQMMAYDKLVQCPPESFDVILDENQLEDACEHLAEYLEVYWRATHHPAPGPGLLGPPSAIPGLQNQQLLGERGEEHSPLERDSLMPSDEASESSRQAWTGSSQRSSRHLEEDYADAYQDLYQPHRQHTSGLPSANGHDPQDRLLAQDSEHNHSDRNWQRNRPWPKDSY

| SMILES | inhibition at 3 µM |
| --- | --- |
| CS(=O)(=O)CCNC(=O)c1c(-c2ccc(Cl)cc2)cc(C(F)(F)F)n1Cc1ccccc1 [SC-191, 1-Benzyl-3-(4-chlorophenyl)-N-(2-methylsulfonyl-ethyl)-5-(trifluoromethyl)-1H-pyrrole-2-carboxylic acid amide] | 75 to 95% |
| CCS(=O)(=O)CCN(C)C(=O)c1c(-c2ccc(Cl)cc2)cc(C(F)(F)F)n1Cc1ccccc1 [SC-192, 1-Benzyl-3-(4-chlorophenyl)-N-[2-(ethylsulfonyl)-ethyl]-N-methyl-5-(trifluoromethyl)-1H-pyrrole-2-carboxylic acid amide] | > 95% |
| CN(C(=O)c1c(-c2ccc(Cl)cc2)cc(C(F)(F)F)n1Cc1ccccc1)C1CCS(=O)(=O)CC1 [SC-193, 1-Benzyl-3-(4-chlorophenyl)-N-(1,1-dioxo-thian-4-yl)-N-methyl-5-(trifluoromethyl)-1H-pyrrole-2-carboxylic acid amide] | > 95% |
| CC(C)S(=O)(=O)CCN(C)C(=O)c1c(-c2ccc(Cl)cc2)cc(C(F)(F)F)n1Cc1ccccc1 [SC-194, 1-Benzyl-3-(4-chlorophenyl)-N-[2-(isopropylsulfonyl)-ethyl]-N-methyl-5-(trifluoromethyl)-1H-pyrrole-2-carboxylic acid amide] | > 95% |
| CN(CCC1CCCO1)C(=O)c1c(-c2ccc(Cl)cc2)cc(C(F)(F)F)n1Cc1ccccc1 (stereo not shown) [SC-195, 1-Benzyl-3-(4-chlorophenyl)-N-methyl-N-(2-tetrahydro-furan-2-yl-ethyl)-5-(trifluoromethyl)-1H-pyrrole-2-carboxylic acid amide] | > 95% |
| O=C(c1c(-c2ccc(Cl)cc2)cc(C(F)(F)F)n1Cc1ccccc1)N1CCS(=O)(=O)CC1 [SC-196, [1-Benzyl-3-(4-chlorophenyl)-5-(trifluoromethyl)-1H-pyrrol-2-yl]-(1,1-dioxo-[1,4]thiazinan-4-yl)-methanone] | > 95% |
| CN(CC1CCCO1)C(=O)c1c(-c2ccc(Cl)cc2)cc(C(F)(F)F)n1Cc1ccccc1 (stereo not shown) [SC-197, 1-Benzyl-3-(4-chlorophenyl)-N-methyl-N-(tetrahydro-furan-2-yl-methyl)-5-(trifluoromethyl)-1H-pyrrole-2-carboxylic acid amide] | > 95% |
| CC(CS(C)(=O)=O)N(C)C(=O)c1c(-c2ccc(Cl)cc2)cc(C(F)(F)F)n1Cc1ccccc1 (stereo not shown) [SC-198, 1-Benzyl-3-(4-chlorophenyl)-N-methyl-N-(1-methyl-2-methylsulfonyl-ethyl)-5-(trifluoromethyl)-1H-pyrrole-2-carboxylic acid amide] | > 95% |
| CN(CC1CCC[C@@H]1O)C(=O)c1c(-c2ccc(Cl)cc2)cc(C(F)(F)F)n1Cc1ccccc1 (stereo partly drawn) [SC-199, 1-Benzyl-3-(4-chlorophenyl)-N-[[(2S)-2-hydroxy-cyclopentyl]-methyl]-N-methyl-5-(trifluoromethyl)-1H-pyrrole-2-carboxylic acid amide] | > 95% |
| CN(CC1CCC[C@H]1O)C(=O)c1c(-c2ccc(Cl)cc2)cc(C(F)(F)F)n1Cc1ccccc1 (stereo partly drawn) [SC-200, 1-Benzyl-3-(4-chlorophenyl)-N-[[(2R)-2-hydroxy-cyclopentyl]-methyl]-N-methyl-5-(trifluoromethyl)-1H-pyrrole-2-carboxylic acid amide] | > 95% |
| CS(=O)(=O)C1CN(C(=O)c2c(-c3ccc(Cl)cc3)cc(C(F)(F)F)n2Cc2ccccc2)C1 [SC-201, [1-Benzyl-3-(4-chlorophenyl)-5-(trifluoromethyl)-1H-pyrrol-2-yl]-(3-methylsulfonyl-azetidin-1-yl)-methanone] | 75 to 95% |
| CN(CC1CCCCO1)C(=O)c1c(-c2ccc(Cl)cc2)cc(C(F)(F)F)n1Cc1ccccc1 (stereo not shown) [SC-202, 1-Benzyl-3-(4-chlorophenyl)-N-methyl-N-(tetrahydro-pyran-2-yl-methyl)-5-(trifluoromethyl)-1H-pyrrole-2-carboxylic acid amide] | 75 to 95% |
| CN(CCN1CCCC1)CC(C)(C)CN(C)C(=O)c1c(-c2ccc(Cl)cc2)cc(C(F)(F)F)n1Cc1ccccc1 [SC-203, 1-Benzyl-3-(4-chlorophenyl)-N-[2,2-dimethyl-3-[methyl-(2-pyrrolidin-1-yl-ethyl)-amino]-propyl]-N-methyl-5-(trifluoromethyl)-1H-pyrrole-2-carboxylic acid amide] | > 95% |
| Cc1cc(CN(C)C(=O)c2c(-c3ccc(Cl)cc3)cc(C(F)(F)F)n2Cc2ccccc2)on1 [SC-204, 1-Benzyl-3-(4-chlorophenyl)-N-methyl-N-[(3-methyl-isoxazol-5-yl)-methyl]-5-(trifluoromethyl)-1H-pyrrole-2-carboxylic acid amide] | 75 to 95% |
| Cc1cc(CN(C)C(=O)c2c(-c3ccc(Cl)cc3)cc(C(F)(F)F)n2Cc2ccccc2)no1 [SC-205, 1-Benzyl-3-(4-chlorophenyl)-N-methyl-N-[(5-methyl-isoxazol-3-yl)-methyl]-5-(trifluoromethyl)-1H-pyrrole-2-carboxylic acid amide] | > 95% |
| Cc1nnc(CN(C)C(=O)c2c(-c3ccc(Cl)cc3)cc(C(F)(F)F)n2Cc2ccccc2)o1 [SC-206, 1-Benzyl-3-(4-chlorophenyl)-N-methyl-N-[(5-methyl-[1,3,4]oxadiazol-2-yl)-methyl]-5-(trifluoromethyl)-1H-pyrrole-2-carboxylic acid amide] | 75 to 95% |

| SMILES | inhibition at 3 µM |
| --- | --- |
| CN(Cc1ccncn1)C(=O)c1c(-c2ccc(Cl)cc2)cc(C(F)(F)F)n1Cc1ccccc1 [SC-207, 1-Benzyl-3-(4-chlorophenyl)-N-methyl-N-(pyrimidin-4-yl-methyl)-5-(trifluoromethyl)-1H-pyrrole-2-carboxylic acid amide] | > 95% |
| COC1CCN(C(=O)c2c(-c3ccc(Cl)cc3)cc(C(F)(F)F)n2Cc2ccccc2)CC1 [SC-208, [1-Benzyl-3-(4-chlorophenyl)-5-(trifluoromethyl)-1H-pyrrol-2-yl]-(4-methoxy-piperidin-1-yl)-methanone] | > 95% |
| CC(=O)N1CCN(C(=O)c2c(-c3ccc(Cl)cc3)cc(C(F)(F)F)n2Cc2ccccc2)CC1 [SC-209, 1-[4-[1-Benzyl-3-(4-chlorophenyl)-5-(trifluoromethyl)-1H-pyrrole-2-carbonyl]-piperazin-1-yl]-ethanone] | > 95% |
| CN(Cc1cnccn1)C(=O)c1c(-c2ccc(Cl)cc2)cc(C(F)(F)F)n1Cc1ccccc1 [SC-210, 1-Benzyl-3-(4-chlorophenyl)-N-methyl-N-(pyrazin-2-yl-methyl)-5-(trifluoromethyl)-1H-pyrrole-2-carboxylic acid amide] | 75 to 95% |
| CN(Cc1nccn1C)C(=O)c1c(-c2ccc(Cl)cc2)cc(C(F)(F)F)n1Cc1ccccc1 [SC-212, 1-Benzyl-3-(4-chlorophenyl)-N-methyl-N-[(1-methyl-1H-imidazol-2-yl)-methyl]-5-(trifluoromethyl)-1H-pyrrole-2-carboxylic acid amide] | > 95% |
| CC(C)N(C)C(=O)c1c(-c2ccc(Cl)cc2)cc(C(F)(F)F)n1Cc1ccccc1 [SC-213, 1-Benzyl-3-(4-chlorophenyl)-N-isopropyl-N-methyl-5-(trifluoromethyl)-1H-pyrrole-2-carboxylic acid amide] | > 95% |
| CC(C)NC(=O)c1c(-c2ccc(Cl)cc2)cc(C(F)(F)F)n1Cc1ccccc1 [SC-214, 1-Benzyl-3-(4-chlorophenyl)-N-isopropyl-5-(trifluoromethyl)-1H-pyrrole-2-carboxylic acid amide] | 75 to 95% |
| Cc1cnc(CN(C)C(=O)c2c(-c3ccc(Cl)cc3)cc(C(F)(F)F)n2Cc2ccccc2)cn1 [SC-215, 1-Benzyl-3-(4-chlorophenyl)-N-methyl-N-[(5-methyl-pyrazin-2-yl)-methyl]-5-(trifluoromethyl)-1H-pyrrole-2-carboxylic acid amide] | > 95% |
| CN(Cc1cnc(N(C)C)nc1)C(=O)c1c(-c2ccc(Cl)cc2)cc(C(F)(F)F)n1Cc1ccccc1 [SC-216, 1-Benzyl-3-(4-chlorophenyl)-N-[(2-dimethylamino-pyrimidin-5-yl)-methyl]-N-methyl-5-(trifluoromethyl)-1H-pyrrole-2-carboxylic acid amide] | 75 to 95% |
| O=C(c1c(-c2ccc(Cl)cc2)cc(C(F)(F)F)n1Cc1ccccc1)N1CCn2ccnc2C1 [SC-217, [1-Benzyl-3-(4-chlorophenyl)-5-(trifluoromethyl)-1H-pyrrol-2-yl]-(5,6,7,8-tetrahydro-imidazo[1,2-a]pyrazin-7-yl)-methanone] | > 95% |
| Cc1c(-c2ccc(F)cc2)c(C(=O)N(C)CC(C)(C)CO)n(Cc2ccccc2)c1C(F)(F)F [SC-218, 1-Benzyl-3-(4-fluorophenyl)-N-(3-hydroxy-2,2-dimethyl-propyl)-N,4-dimethyl-5-(trifluoromethyl)-1H-pyrrole-2-carboxylic acid amide] | > 95% |
| Cc1c(-c2ccc(F)cc2)c(C(=O)N(C)CCS(C)(=O)=O)n(Cc2ccccc2)c1C(F)(F)F [SC-219, 1-Benzyl-3-(4-fluorophenyl)-N,4-dimethyl-N-(2-methylsulfonyl-ethyl)-5-(trifluoromethyl)-1H-pyrrole-2-carboxylic acid amide] | > 95% |
| Cc1c(-c2ccc(F)cc2)c(C(=O)N(C)C2CCOCC2)n(Cc2ccccc2)c1C(F)(F)F [SC-220, 1-Benzyl-3-(4-fluorophenyl)-N,4-dimethyl-N-tetrahydro-pyran-4-yl-5-(trifluoromethyl)-1H-pyrrole-2-carboxylic acid amide] | > 95% |
| Cc1c(-c2ccc(F)cc2)c(C(=O)N(C)C2CC2)n(Cc2ccccc2)c1C(F)(F)F [SC-221, 1-Benzyl-N-cyclopropyl-3-(4-fluorophenyl)-N,4-dimethyl-5-(trifluoromethyl)-1H-pyrrole-2-carboxylic acid amide] | > 95% |
| Cc1c(-c2ccc(F)cc2)c(C(=O)N(C)C(C)(C)CO)n(Cc2ccccc2)c1C(F)(F)F [SC-222, 1-Benzyl-3-(4-fluorophenyl)-N-(2-hydroxy-1,1-dimethyl-ethyl)-N,4-dimethyl-5-(trifluoromethyl)-1H-pyrrole-2-carboxylic acid amide] | > 95% |
